Data as given in PubChem BioAssay (NCI).
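A five-concentration, 48-hour dose response in 96-well plates underlies each endpoint, interpolated linearly between surrounding concentrations. The concentration for 50% growth inhibition is given as GI50. TGI is the concentration that stops growth completely.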

Experiments:
Assay in all cases: NCI anticancer screen, dose series, 48 h
[1] = test system: CAKI-1 renal
[2] = test system: EKVX NSCLC
[3] = test system: HCT-116 colon
[4] = test system: M14 melanoma
[5] = test system: RPMI-8226 leukemia
[6] = test system: U251 CNS
[7] = test system: DU-145 prostate
[8] = test system: NCI-H522 lung
[9] = test system: T-47D breast
[10] = test system: UACC-62 melanoma

Row | SMILES | TGI [1] [µM] | TGI [2] [µM] | TGI [3] [µM] | TGI [4] [µM] | TGI [5] [µM] | TGI [6] [µM] | TGI [7] [µM] | TGI [8] [µM] | TGI [9] [µM] | TGI [10] [µM] | GI50 [1] [µM] | GI50 [7] [µM] | GI50 [2] [µM] | GI50 [3] [µM] | GI50 [4] [µM] | GI50 [8] [µM] | GI50 [5] [µM] | GI50 [9] [µM] | GI50 [6] [µM] | GI50 [10] [µM]
1 | CC1CCN(c2cc(-c3cc4ccccc4o3)oc(=O)c2C#N)CC1 | > 100 | > 100 | > 100 | > 100 | > 100 | > 100 | – | – | – | – | – | – | – | – | – | – | – | – | – | –
2 | CC1=C2CC(C)(C)CC(=O)C2(C)CCC1=O (stereo not drawn) | > 100 | > 100 | > 100 | > 100 | 13.8 | > 100 | > 100 | > 100 | > 100 | > 100 | – | – | – | – | – | – | – | – | – | –
3 | CCOc1cc(/C=C/C(=O)CC(=O)/C=C/c2ccc(OC(=O)CNCCN(CC)CC)c(OCC)c2)ccc1OC(=O)CNCCN(CC)CC | 6.74 | 3.58 | 2.61 | 4.23 | 2.1 | 2.82 | 3.56 | 5.13 | 45.4 | 3.16 | 2.12 | 1.61 | 1.5 | 1.2 | 1.74 | 1.8 | 0.45 | 6.41 | 1.27 | 1.53
4 | Cc1cc(C)c(S(=O)(=O)N(CCCN)OCCCN)c(C)c1 | > 100 | > 100 | > 100 | > 100 | > 100 | > 100 | > 100 | – | > 100 | > 100 | – | – | – | – | – | – | – | – | – | –
5 | CCN(CCCl)c1cc(CN(C)C)cc(NC(=O)c2cc(C(=O)Nc3cc(CN(C)C)cc(N(CC)CCCl)c3)n(C)n2)c1 | 2.72 | – | 1.3 | 2.01 | > 100 | 0.387 | 9.19 | 0.384 | 6.43 | 2.36 | – | – | – | – | – | – | – | – | – | –
6 | O=C([O-])C1([n+]2c(-c3ccccc3)cc(-c3ccccc3)cc2-c2ccccc2)CC1 | – | > 100 | > 100 | > 100 | > 100 | > 100 | > 100 | > 100 | 45.2 | 67.7 | – | – | – | – | – | – | – | – | – | –
7 | CC(=O)OC1CC[C@@]2(C)C(=CC[C@@H]3[C@@H]2CC[C@]2(C)C(OC(C)=O)[C@H](n4ccnc4)C[C@@H]32)C1 (stereo partly drawn) | > 100 | > 100 | 31.2 | 31.2 | 55.2 | > 100 | > 100 | 40.9 | – | 30.3 | – | – | – | – | – | – | – | – | – | –
8 | COc1cccc(-c2[nH]c3cc4c(cc3c(=O)c2C(=O)O)OCO4)c1 | > 100 | > 100 | > 100 | > 100 | > 100 | > 100 | > 100 | – | > 100 | > 100 | – | – | – | – | – | – | – | – | – | –
9 | N=C(N)c1ccc(N=Nc2c(O)ccc3cc(O)ccc23)cc1 | > 100 | > 100 | > 100 | > 100 | > 100 | > 100 | – | > 100 | – | > 100 | – | – | – | – | – | – | – | – | – | –
10 | CC(=O)Oc1ccc2cc(Oc3ccccc3)c(=O)oc2c1 | > 100 | > 100 | > 100 | > 100 | > 100 | > 100 | > 100 | 70.7 | > 100 | – | – | – | – | – | – | – | – | – | – | –
11 | O=C1NC2=NN=C(c3ccc(Br)cc3)CN2NC12c1ccccc1-c1ccccc12 | > 100 | > 100 | > 100 | > 100 | – | > 100 | > 100 | > 100 | – | > 100 | – | – | – | – | – | – | – | – | – | –
12 | CC(=O)O[C@H]1C[C@H]2[C@@H]([C@H](OC(C)=O)C[C@@H]3CC4(CC[C@@]32C)OOC2(CCCCC2)OO4)[C@@H]2CC[C@H]([C@H](C)CCC(=O)O)[C@@]12C | 25.3 | 4.76 | 19.2 | 26.9 | 20.7 | 17.7 | 31.6 | 9.36 | 45.7 | – | – | – | – | – | – | – | – | – | – | –
13 | c1csc(C(NC2=NCCO2)C2CC2)c1 (stereo not drawn) | > 100 | > 100 | > 100 | – | > 100 | > 100 | – | > 100 | > 100 | > 100 | – | – | – | – | – | – | – | – | – | –
14 | O=C(/C=C\c1ccc(/C=C/C(=O)Nc2cccc(C3=NCCCN3)c2)cc1)Nc1cccc(C2=NCCCN2)c1 | – | – | > 100 | – | 76.3 | > 100 | – | > 100 | – | – | – | – | – | – | – | – | – | – | – | –
15 | N#C[C@H](C(=O)c1ccccc1F)c1nc2ccccc2[nH]1 | > 100 | > 100 | > 100 | > 100 | > 100 | > 100 | > 100 | – | > 100 | > 100 | – | – | – | – | – | – | – | – | – | –
16 | O=c1[nH]c(=S)[nH]c2c(C3OC(CO)C(O)C3O)nsc12 (stereo not drawn) | > 100 | > 100 | > 100 | > 100 | – | > 100 | > 100 | – | > 100 | > 100 | – | – | – | – | – | – | – | – | – | –
17 | COc1cccc(/C=N/[N-]C(N)=O)c1[O-].[OH3+].[Pd+2] | > 100 | > 100 | > 100 | > 100 | > 100 | > 100 | – | > 100 | – | > 100 | – | – | – | – | – | – | – | – | – | –
18 | CCOc1cc2c(cc1O)CC[C@@H]1[C@@H]2CC[C@]2(C)[C@@H](O)CC[C@@H]12 | 52.9 | 48 | 6.63 | 3.16 | 7.86 | 19.3 | 9.15 | 0.0197 | – | 19.7 | – | – | – | – | – | – | – | – | – | –
19 | Fc1ccc(C(OCCN2CC3CC2CN3)c2ccc(F)cc2)cc1 (stereo not drawn) | > 100 | – | – | – | 71.1 | > 100 | > 100 | > 100 | > 100 | 37.3 | – | – | – | – | – | – | – | – | – | –
20 | COCCOCCOCCC(=O)NC1CC2CCC1(C)C2(C)C (stereo not drawn) | > 100 | > 100 | > 100 | > 100 | > 100 | > 100 | > 100 | – | – | > 100 | – | – | – | – | – | – | – | – | – | –
21 | CO/C(=N\N=C(/c1ccccc1)C(F)(F)F)c1ccncc1 | > 100 | – | > 100 | > 100 | > 100 | > 100 | > 100 | > 100 | > 100 | > 100 | – | – | – | – | – | – | – | – | – | –
22 | Clc1cccc2[nH]ncc12 | > 100 | 95.4 | > 100 | – | > 100 | > 100 | > 100 | > 100 | > 100 | > 100 | – | – | – | – | – | – | – | – | – | –
23 | O=C1c2ccccc2-n2c1nc1ccc(Cl)cc1c2=O | > 100 | > 100 | > 100 | > 100 | > 100 | > 100 | > 100 | – | > 100 | 92.7 | – | – | – | – | – | – | – | – | – | –
